Measurements as given in patent US11479551B2, “MTA-cooperative PRMT5 inhibitors” (Mirati Therapeutics, Inc., priority 2019, dated 2022).

Tests used:
PRMT5/MEP50 complex [1] = target: T1, PRMT5/MEP50 complex (Homo sapiens (Human), UniProt O14744); assay: PRMT5:MEP50 FlashPlate Assay (histone H4 peptide substrate, plus and minus MTA); type: biochemical
Description: The PRMT5 inhibitory activity of compounds of the present invention was determined using either a PRMT5:MEP50 FlashPlate Assay (Reaction Biology Corporation) or a PRMT5:MEP50 HotSpot Assay (Reaction Biology Corporation).
1. PRMT5:MEP50 FlashPlate Assay

HCT116 parental cells = assay: Proliferation assay (CellTiter-Glo, 10 days of treatment), HCT116 parental; type: cell-based; conditions: Homo sapiens, HCT-116, 240 h
In short: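 250 cells seeded in McCoy's 5A with 10% FBS, then given a dose response of PRMT5 inhibitor at 37 °C, 5% CO2 for five days. Cells were split 1:10 on Day 6 into fresh medium with the same compound concentration for 5 more days. Viability read on Day 11 by CellTiter-Glo; IC50 after 10 days of treatment.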

[2] = test system: PRMT5-dependent Symmetric Di-methyl Arginine signal in HCT116 parental cells; assay: SYM11 In-Cell Western, HCT116 parental; type: cell-based; conditions: Homo sapiens, HCT-116, 96 h, 4 days of treatment, SYM11/DRAQ5 ratio
In short: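 HCT116 parental cells (2,000/well, McCoy's 5A with 10% FBS) dosed with PRMT5 inhibitors for four days at 37° C. Fixed in paraformaldehyde and methanol, then stained with SYM11 antibody and DRAQ5.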

PRMT5/MEP50 complex [3] = target: T1, PRMT5/MEP50 complex; assay: PRMT5:MEP50 HotSpot Assay (full-length histone H2A substrate, plus and minus MTA); type: biochemical; conditions: IC50 + 2 μM MTA, in the presence of 2 μM MTA
In short: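 Tritium incorporated into recombinant full-length histone H2A was counted by scintillation after stopped reactions were captured on filter paper.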

[4] = test system: PRMT5-dependent Symmetric Di-methyl Arginine signal in HCT116 homozygous MTAP knockout cells; assay: SYM11 In-Cell Western, HCT116 MTAP knockout; type: cell-based; conditions: Homo sapiens, HCT-116, 96 h, HCT116 homozygous MTAP knockout cells, 4 days of treatment, SYM11/DRAQ5 ratio; read-out: In-cell-Western (SYM11) HCT116 MTAP_KO IC50
[5] = test system: HCT116 homozygous MTAP knockout cells; assay: Proliferation assay (CellTiter-Glo, 10 days of treatment), HCT116 MTAP knockout; type: cell-based; conditions: Homo sapiens, HCT-116, 240 h, read-out: Proliferation HCT116MTAP_KO IC50
In short: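 Viability of the CRISPR/Cas9 homozygous MTAP-knockout HCT116 line was read by CellTiter-Glo after 10 days of PRMT5 inhibitor exposure, with IC50 derived from the dose response. Compound was given the day after seeding and renewed at an identical concentration when cells were split 1:10 on day 6.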

[6] = IC50 + 2 μM MTA (nM), in the presence of 2 μM MTA
[7] = in the absence of MTA, read-out: IC50

T1 sequence (O14744 2-637): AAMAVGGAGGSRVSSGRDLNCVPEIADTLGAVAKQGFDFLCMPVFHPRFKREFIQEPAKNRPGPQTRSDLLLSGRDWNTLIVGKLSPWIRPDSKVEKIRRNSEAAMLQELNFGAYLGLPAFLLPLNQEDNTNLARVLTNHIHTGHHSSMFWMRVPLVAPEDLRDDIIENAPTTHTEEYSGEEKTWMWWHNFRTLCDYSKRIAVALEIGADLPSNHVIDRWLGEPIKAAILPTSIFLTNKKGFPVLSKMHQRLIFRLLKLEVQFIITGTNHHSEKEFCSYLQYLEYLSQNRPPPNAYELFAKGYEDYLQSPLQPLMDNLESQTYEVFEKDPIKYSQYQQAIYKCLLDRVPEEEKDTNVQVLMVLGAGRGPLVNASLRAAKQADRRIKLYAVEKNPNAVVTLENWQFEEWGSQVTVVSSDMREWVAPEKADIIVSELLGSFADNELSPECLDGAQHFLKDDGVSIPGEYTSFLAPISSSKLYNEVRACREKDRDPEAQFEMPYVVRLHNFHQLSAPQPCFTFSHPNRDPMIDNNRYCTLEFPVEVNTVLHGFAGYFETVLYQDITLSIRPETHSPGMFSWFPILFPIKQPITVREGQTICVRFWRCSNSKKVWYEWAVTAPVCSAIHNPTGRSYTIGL
T1 sequence (Q9BQA1 2-342 partner): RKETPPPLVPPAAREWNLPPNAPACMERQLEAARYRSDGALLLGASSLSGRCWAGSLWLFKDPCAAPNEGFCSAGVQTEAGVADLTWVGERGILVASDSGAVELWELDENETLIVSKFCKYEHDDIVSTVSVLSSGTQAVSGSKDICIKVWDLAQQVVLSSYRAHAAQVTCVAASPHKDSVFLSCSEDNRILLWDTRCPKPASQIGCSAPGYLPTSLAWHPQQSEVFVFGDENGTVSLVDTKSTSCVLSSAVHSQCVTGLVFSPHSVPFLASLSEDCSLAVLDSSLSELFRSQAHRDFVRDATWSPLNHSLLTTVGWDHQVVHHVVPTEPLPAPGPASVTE

Q: With `Cc1cccc(-c2c(-c3ccc4c(=O)[nH]nc(CN)c4c3)cnn2C)c1` [Example 4-94, 4-(aminomethyl)-6-(1-methyl-5-(m-tolyl)-1H-pyrazol-4-yl)phthalazin-1(2H)-one] as the compound, how does the IC50 (PRMT5/MEP50 complex [1]; [6]) read?
A: Its IC50 is 2.2 nM.

Q: What about the IC50 (PRMT5/MEP50 complex [1]; [7]) of the same compound?
A: Its IC50 is 83 nM.

Q: And the IC50 (HCT116 parental cells)?
A: Its IC50 is 4880 nM.

Q: And the IC50 [2]?
A: The IC50 was 10000 nM.

Q: And the IC50 (PRMT5/MEP50 complex [3])?
A: Its IC50 is 737 nM.

Q: What about the IC50 [4] of the same compound?
A: The IC50 was 1180 nM.

Q: What about the IC50 [5] of the same compound?
A: Its IC50 is 1840 nM.

Q: `Cn1ncc(-c2ccc3c(=O)[nH]nc(CN)c3c2)c1-c1ccccc1C#N` [Example 4-100, 2-(4-(4-(aminomethyl)-1-oxo-1,2-dihydrophthalazin-6-yl)-1-methyl-1H-pyrazol-5-yl)benzonitrile] was tested. Which IC50 (PRMT5/MEP50 complex [1]; [6]) did it give?
A: The IC50 was 0.5 nM.

Q: What about the IC50 (PRMT5/MEP50 complex [1]; [7]) of the same compound?
A: The IC50 was 80 nM.

Q: What about the IC50 (HCT116 parental cells) of the same compound?
A: Its IC50 is 10000 nM.

Q: And the IC50 [2]?
A: Its IC50 is 10000 nM.

Q: What about the IC50 (PRMT5/MEP50 complex [3]) of the same compound?
A: Its IC50 is 1510 nM.

Q: And the IC50 [4]?
A: The IC50 was 505 nM.

Q: What about the IC50 [5] of the same compound?
A: The IC50 was 5230 nM.

Q: Which IC50 (PRMT5/MEP50 complex [1]; [6]) does the source give for `CCOc1ccn2ncc(-c3ccc4c(=O)[nH]nc(CN)c4c3)c2c1` [Example 4-158, 4-(aminomethyl)-6-(5-ethoxypyrazolo[1,5-a]pyridin-3-yl)phthalazin-1(2H)-one] here?
A: Its IC50 is 2.8 nM.

Q: And the IC50 (PRMT5/MEP50 complex [1]; [7])?
A: Its IC50 is 113 nM.

Q: And the IC50 (HCT116 parental cells)?
A: Its IC50 is 1740 nM.

Q: What about the IC50 [2] of the same compound?
A: Its IC50 is greater than 10000 nM.

Q: What about the IC50 (PRMT5/MEP50 complex [3]) of the same compound?
A: Its IC50 is 1460 nM.

Q: What about the IC50 [4] of the same compound?
A: Its IC50 is greater than 10000 nM.

Q: What about the IC50 [5] of the same compound?
A: Its IC50 is 2200 nM.

Q: `CN(c1ccccc1)c1cncc(-c2ccc3c(=O)[nH]nc(CN)c3c2)c1` [Example 4-159, 4-(aminomethyl)-6-(5-(methyl(phenyl)amino)pyridin-3-yl)phthalazin-1(2H)-one] was tested. Which IC50 (PRMT5/MEP50 complex [1]; [6]) did it give?
A: The IC50 was 4 nM.

Q: What about the IC50 (PRMT5/MEP50 complex [1]; [7]) of the same compound?
A: The IC50 was 68.4 nM.

Q: What about the IC50 (HCT116 parental cells) of the same compound?
A: The IC50 was greater than 10000 nM.

Q: And the IC50 [2]?
A: Its IC50 is greater than 10000 nM.

Q: And the IC50 (PRMT5/MEP50 complex [3])?
A: The IC50 was 393 nM.

Q: What about the IC50 [4] of the same compound?
A: The IC50 was greater than 10000 nM.

Q: And the IC50 [5]?
A: Its IC50 is 8250 nM.

Q: How did the IC50 (HCT116 parental cells) turn out when `Cc1c(Cl)ccc(-c2c(-c3ccc4c(=O)[nH]nc(CN)c4c3)cnn2C)c1C#N` [Example 12-1, 6-(4-(4-(aminomethyl)-1-oxo-1,2-dihydrophthalazin-6-yl)-1-methyl-1H-pyrazol-5-yl)-3-chloro-2-methylbenzonitrile] was run?
A: Its IC50 is greater than 10000 nM.

Q: And the IC50 [2]?
A: The IC50 was greater than 1000 nM.

Q: What about the IC50 (PRMT5/MEP50 complex [3]) of the same compound?
A: Its IC50 is 316 nM.

Q: And the IC50 [4]?
A: The IC50 was 28 nM.

Q: What about the IC50 [5] of the same compound?
A: Its IC50 is 158 nM.

Q: `Cc1ccc(-c2c(-c3ccc4c(=O)[nH]nc(CN)c4c3)cnn2C)c(C#N)c1C` [Example 12-2, 6-(4-(4-(aminomethyl)-1-oxo-1,2-dihydrophthalazin-6-yl)-1-methyl-1H-pyrazol-5-yl)-2,3-dimethylbenzonitrile] was tested. Which IC50 (HCT116 parental cells) did it give?
A: The IC50 was 208 nM.

Q: And the IC50 [2]?
A: The IC50 was 2200 nM.

Q: And the IC50 (PRMT5/MEP50 complex [3])?
A: Its IC50 is 315 nM.

Q: What about the IC50 [4] of the same compound?
A: Its IC50 is 16 nM.

Q: And the IC50 [5]?
A: Its IC50 is greater than 10000 nM.

Q: How did the IC50 (HCT116 parental cells) turn out when `CCc1cc(CC)c(C#N)c(-c2c(-c3ccc4c(=O)[nH]nc(CN)c4c3)cnn2C)c1` [Example 12-3, 2-[4-[4-(aminomethyl)-1-oxo-2H-phthalazin-6-yl]-2-methyl-pyrazol-3-yl]-4,6-diethyl-benzonitrile] was run?
A: Its IC50 is 1690 nM.

Q: And the IC50 [2]?
A: The IC50 was greater than 1000 nM.

Q: And the IC50 (PRMT5/MEP50 complex [3])?
A: The IC50 was 212 nM.

Q: What about the IC50 [4] of the same compound?
A: Its IC50 is 8 nM.

Q: And the IC50 [5]?
A: Its IC50 is 137 nM.

Q: What does the source list for `Cc1cccc2c(C#N)c(-c3c(-c4ccc5c(=O)[nH]nc(CN)c5c4)cnn3C)ccc12` [Example 12-9, 2-(4-(4-(aminomethyl)-1-oxo-1,2-dihydrophthalazin-6-yl)-1-methyl-1H-pyrazol-5-yl)-5-methyl-1-naphthonitrile]?
A: IC50 (HCT116 parental cells): 3350 nM; IC50 [2]: > 10000 nM; IC50 (PRMT5/MEP50 complex [3]): 178 nM; IC50 [4]: 9 nM; IC50 [5]: 148 nM

Q: What does the source list for `Cc1cc(C)c(C#N)c(-c2c(-c3ccc4c(=O)[nH]nc(CN)c4c3)cnn2C)c1` [Example 12-11, 2-(4-(4-(aminomethyl)-1-oxo-1,2-dihydrophthalazin-6-yl)-1-methyl-1H-pyrazol-5-yl)-4,6-dimethylbenzonitrile]?
A: IC50 (HCT116 parental cells): 8700 nM; IC50 [2]: 1230 nM; IC50 (PRMT5/MEP50 complex [3]): 234 nM; IC50 [4]: 18 nM; IC50 [5]: 125 nM

Q: With `Cc1c(-c2cnn(C)c2)ccc(-c2c(-c3ccc4c(=O)[nH]nc(CN)c4c3)cnn2C)c1C#N` [Example 12-13, 6-(4-(4-(aminomethyl)-1-oxo-1,2-dihydrophthalazin-6-yl)-1-methyl-1H-pyrazol-5-yl)-2-methyl-3-(1-methyl-1H-pyrazol-4-yl)benzonitrile] as the compound, how does the IC50 (HCT116 parental cells) read?
A: Its IC50 is 2000 nM.

Q: And the IC50 [2]?
A: Its IC50 is greater than 1000 nM.

Q: And the IC50 (PRMT5/MEP50 complex [3])?
A: Its IC50 is 218 nM.

Q: And the IC50 [4]?
A: Its IC50 is 95 nM.

Q: What about the IC50 [5] of the same compound?
A: Its IC50 is 1410 nM.

Q: With `Cc1cc(C2CC2)cc(-c2c(-c3ccc4c(=O)[nH]nc(CN)c4c3)cnn2C)c1C#N` [Example 12-14, 2-[4-[4-(aminomethyl)-1-oxo-2H-phthalazin-6-yl]-2-methyl-pyrazol-3-yl]-4-cyclopropyl-6-methyl-benzonitrile] as the compound, how does the IC50 (HCT116 parental cells) read?
A: Its IC50 is greater than 10000 nM.

Q: And the IC50 [2]?
A: The IC50 was 1810 nM.

Q: And the IC50 (PRMT5/MEP50 complex [3])?
A: The IC50 was 182 nM.

Q: And the IC50 [4]?
A: Its IC50 is 15 nM.

Q: What about the IC50 [5] of the same compound?
A: The IC50 was 226 nM.
